According to patent publication US12528838B2, “Cyclic dominant negative competence stimulating peptide analogs and methods of treating Streptococcus pneumoniae infections” (priority 2019, dated 2026):
Bridge positions count the residues as written; N and C are the ends. Square brackets hold non-standard residues; d marks the D form. Peptide text beside a SMILES is read from it. Dap = NC[C@H](N)C(=O)O

Tests used:
[1] = Stability in mouse lungs (BAL fluid analysed by HPLC after intratracheal instillation); type: in vivo, CD1 mice; conditions: both sexes, CD1, cell-free bronchoalveolar lavage fluid (BALF), inhaled or intranasal, 400 ug, 400 μg intratracheally, FIG. 14B
Experimental: (§1) FIGS. 14A-14D. Pharmacological properties of dnCSPs. (FIG. 14A) CSPs were treated with trypsin/chymotrypsin and their degradation monitored by HPLC. (FIG. 14B) CD1 mice (3/cohort, males & females) were intratracheally instilled 400 μg of native or dnCSPs. Mice were bronchial alveolar lavaged (BAL) at indicated times, and cell free BAL fluid (BALF) were analyzed by HPLC. […] (FIGS. 14C-14D) CD1 mice (5/cohorts, males & females) were intratracheally inoculated with MTD doses of native and dnCSPs (200 μg-20 mg/kg). […] Lung sections (FIGS. 14C-14D) and other organs were H&E stained. b=bronchioles; v=vessels.

[2] = target: ComD2 receptor (Streptococcus pneumoniae serotype 4, UniProt A0A0H2US84); assay: cell-based; type: cell-based
ComD2 receptor, sequence (A0A0H2US84 entry or part of it): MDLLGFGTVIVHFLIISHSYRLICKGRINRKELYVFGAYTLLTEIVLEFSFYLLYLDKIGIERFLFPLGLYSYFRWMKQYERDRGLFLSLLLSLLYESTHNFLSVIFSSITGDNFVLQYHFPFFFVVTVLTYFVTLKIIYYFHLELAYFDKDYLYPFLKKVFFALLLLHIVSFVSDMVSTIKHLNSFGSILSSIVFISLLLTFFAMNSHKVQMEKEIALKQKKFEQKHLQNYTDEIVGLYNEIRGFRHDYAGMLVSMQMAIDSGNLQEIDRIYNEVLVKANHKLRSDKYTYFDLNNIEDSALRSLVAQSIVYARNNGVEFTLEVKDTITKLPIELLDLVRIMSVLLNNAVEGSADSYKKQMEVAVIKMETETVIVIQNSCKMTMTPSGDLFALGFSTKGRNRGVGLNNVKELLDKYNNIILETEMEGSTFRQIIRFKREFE
Description: Biological evaluation of cyclic dnCSPs. […] All assays will be performed in triplicates and independently three times. Serial dilutions of dnCSPs will be conducted to determine the EC50 and IC50 values of promising dnCSPs through initial screening. Data from reporter assays will be analyzed using the GraphPad Prism software. The lead dnCSPs will be assessed for their therapeutic potential using multiple in vitro assays, including attenuation of ComX-induction (reporter systems), genetic transformation, allolysis (zymogram assays), and release of PLY (hemolysis & Western blots). Lastly, the pneumococcal competence system regulates biofilm formation, which is important for the pathogenesis of […]. The ability of the dnCSPs to inhibit biofilm formation will be evaluated after 24 hr of growth on 1% BSA coated coverslips placed in flat-bottom polystyrene tissue culture plates by staining with FilmTracer LIVE/DEAD Biofilm viability kit (Invitrogen, L10316), and visualized using a confocal microscope and Z-stacked to construct 3D-images.

[3] = Proteolytic stability in trypsin/chymotrypsin solution, monitored by RP-HPLC; type: in vitro ADME
Experimental: FIG. 4E. […] All peptides were treated with trypsin/chymotrypsin (0.05 μg mL-1 enzyme concentration). RP-HPLC was used to monitor the progress of degradation. All peptides have a half-life about 3 hours. After 3 to 4 hours, some degradation product of CSP1-cyc-E1A(Dap6E10) start to precipitate out, resulting in the plateau in the curve.
as §1
The proteolytic stability of CSP1-E1A-cyc(Dap6E10) in Trypsin and Chymotrypsin solution was tested and the half-life measured. […] To test that, CSP1-E1A-des-K16K17-cyc(Dap6E10) was manually synthesized and evaluated its activity.
Pharmacological evaluation of lead cyclic dnCSPs. Before moving the most promising dnCSPs into mouse models, their pharmacological properties will be evaluated. As these are peptide-based drugs, first assessed are their metabolic stability. These assays will include prolonged incubation in physiologically-relevant buffers with varying pH values, stability towards degradation by trypsin and chymotrypsin, and stability in mouse lungs, plasma and serum to simulate in vivo proteolytic environments. Degradation of dnCSPs will be quantified using HPLC. […] The MTD will be defined as the maximum dose that causes a 15% loss of initial weight. […] Systemic toxicity will be assessed by performing blood chemistry and complete blood count (CBC) with differential. Major organs (e.g., liver, kidney, heart, lung, etc.) and sternum (to test genotoxicity) will be collected for histopathological and toxicological analysis. […]

[4] = target: ComD1 receptor (Streptococcus pneumoniae serotype 2, UniProt A0A0H2ZM50); assay: cell-based; type: cell-based
ComD1 receptor, sequence (A0A0H2ZM50 entry or part of it): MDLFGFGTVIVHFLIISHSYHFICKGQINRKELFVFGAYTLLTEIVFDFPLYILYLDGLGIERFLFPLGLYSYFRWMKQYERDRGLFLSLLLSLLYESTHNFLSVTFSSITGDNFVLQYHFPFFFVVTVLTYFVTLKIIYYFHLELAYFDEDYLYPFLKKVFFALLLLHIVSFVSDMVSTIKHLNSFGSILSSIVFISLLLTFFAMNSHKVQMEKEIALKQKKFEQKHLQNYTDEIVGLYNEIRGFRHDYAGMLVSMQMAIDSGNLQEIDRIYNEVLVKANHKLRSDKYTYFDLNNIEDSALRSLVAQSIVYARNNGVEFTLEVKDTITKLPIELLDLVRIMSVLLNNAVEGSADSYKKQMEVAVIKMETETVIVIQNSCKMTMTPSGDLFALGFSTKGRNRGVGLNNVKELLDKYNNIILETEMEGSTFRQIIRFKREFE
Description: Biological evaluation of cyclic dnCSPs. The cyclic dnCSPs will be assessed for inhibition of competence induction using the β-gal, lux (FIG. 11) or luc (FIG. 15) reporter systems we have optimized for the analysis of a large number of signal variants in 96-well plates. All assays will be performed in triplicates and independently three times. Serial dilutions of dnCSPs will be conducted to determine the EC50 and IC50 values of promising dnCSPs through initial screening. Data from reporter assays will be analyzed using the GraphPad Prism software. The lead dnCSPs will be assessed for their therapeutic potential using multiple in vitro assays, including attenuation of ComX-induction (reporter systems), genetic transformation, allolysis (zymogram assays), and release of PLY (hemolysis & Western blots). Lastly, the pneumococcal competence system regulates biofilm formation, which is important for the pathogenesis of […]. The ability of the dnCSPs to inhibit biofilm formation will be evaluated after 24 hr of growth on 1% BSA coated coverslips placed in flat-bottom polystyrene tissue culture plates by staining with FilmTracer LIVE/DEAD Biofilm viability kit (Invitrogen, L10316), and visualized using a confocal microscope and Z-stacked to construct 3D-images.

[5] = in vitro, FIG. 14A, read-out: half-life (converted)

Compound	half-life [1] [min]	IC50 [2] [nM]	half-life [3, 5] [min]	IC50 [4] [nM]	half-life ([3]; counting active degradation product CSP1-E1A-des-K16K17-cyc(Dap6E10), read-out: effective half-life) [min]
CC[C@H](C)[C@H](NC(=O)[C@H](Cc1ccccc1)NC(=O)[C@H](CC(=O)O)NC(=O)[C@H](CCCNC(=N)N)NC(=O)[C@H](Cc1ccccc1)NC(=O)[C@H](Cc1ccccc1)NC(=O)[C@H](CCCCN)NC(=O)[C@H](CO)NC(=O)[C@H](CC(C)C)NC(=O)[C@H](CCCNC(=N)N)NC(=O)[C@H](CCSC)NC(=O)[C@@H](N)CCC(=O)O)C(=O)N[C@@H](CC(C)C)C(=O)N[C@@H](CCC(N)=O)C(=O)N[C@@H](CCCNC(=N)N)C(=O)N[C@@H](CCCCN)C(=O)N[C@@H](CCCCN)C(=O)O [CSP1, reference compound]	90	–	–	–	–
CC[C@H](C)[C@H](NC(=O)[C@H](Cc1ccccc1)NC(=O)[C@H](CC(=O)O)NC(=O)[C@H](CCCNC(=N)N)NC(=O)[C@H](Cc1ccccc1)NC(=O)[C@H](Cc1ccccc1)NC(=O)[C@H](CCCCN)NC(=O)[C@H](CO)NC(=O)[C@H](CC(C)C)NC(=O)[C@H](CCCNC(=N)N)NC(=O)[C@H](CCSC)NC(=O)[C@H](C)N)C(=O)N[C@@H](CC(C)C)C(=O)N[C@@H](CCC(N)=O)C(=O)N[C@@H](CCCNC(=N)N)C(=O)N[C@@H](CCCCN)C(=O)N[C@@H](CCCCN)C(=O)O [CSP1-E1A, A-M-R-L-S-K-F-F-R-D-F-I-L-Q-R-K-K]	90	> 10000	90	–	–
CC[C@H](C)[C@H](NC(=O)[C@H](Cc1ccccc1)NC(=O)[C@@H]1CCC(=O)NC[C@H](NC(=O)[C@H](CO)NC(=O)[C@H](CC(C)C)NC(=O)[C@H](CCCNC(=N)N)NC(=O)[C@H](CCSC)NC(=O)[C@H](C)N)C(=O)N[C@@H](Cc2ccccc2)C(=O)N[C@@H](Cc2ccccc2)C(=O)N[C@@H](CCCNC(=N)N)C(=O)N1)C(=O)N[C@@H](CC(C)C)C(=O)N[C@@H](CCC(N)=O)C(=O)N[C@@H](CCCNC(=N)N)C(=O)N[C@@H](CCCCN)C(=O)N[C@@H](CCCCN)C(=O)O [CSP1-E1A-cyc(Dap6E10), A-M-R-L-S-(Dap-F-F-R-E)-F-I-L-Q-R-K-K] (H-AMRLS[Dap]FFREFILQRKK-OH; lactam 6-10; N-terminus and C-terminus assumed)	–	182	–	75.8	> 240
CC[C@H](C)[C@H](NC(=O)[C@H](CCCNC(=N)N)NC(=O)[C@H](CCSC)NC(=O)[C@H](C)N)C(=O)N[C@@H](CO)C(=O)N[C@@H](CCCNC(=N)N)C(=O)N[C@H](C(=O)N[C@H](C(=O)N[C@@H](CC(C)C)C(=O)N[C@H](CC(=O)O)C(=O)N[C@@H](Cc1ccccc1)C(=O)N[C@@H](CC(C)C)C(=O)N[C@@H](Cc1ccccc1)C(=O)N[C@@H](CC(C)C)C(=O)N[C@@H](CCCNC(=N)N)C(=O)N[C@@H](CCCCN)C(=O)N[C@@H](CCCCN)C(=O)O)[C@@H](C)CC)[C@@H](C)CC [CSP2-E1Ad10, A-M-R-I-S-R-I-I-L-d-F-L-F-L-R-K-K] (H-AMRISRIIL[dD]FLFLRKK-OH; N-terminus and C-terminus assumed)	> 180	–	> 180	–	–
CC[C@H](C)[C@H](NC(=O)[C@H](CCCNC(=N)N)NC(=O)[C@H](CCSC)NC(=O)[C@@H](N)CCC(=O)O)C(=O)N[C@@H](CO)C(=O)N[C@@H](CCCNC(=N)N)C(=O)N[C@H](C(=O)N[C@H](C(=O)N[C@@H](CC(C)C)C(=O)N[C@H](CC(=O)O)C(=O)N[C@@H](Cc1ccccc1)C(=O)N[C@@H](CC(C)C)C(=O)N[C@@H](Cc1ccccc1)C(=O)N[C@@H](CC(C)C)C(=O)N[C@@H](CCCNC(=N)N)C(=O)N[C@@H](CCCCN)C(=O)N[C@@H](CCCCN)C(=O)O)[C@@H](C)CC)[C@@H](C)CC [CSP2-d10, E-M-R-I-S-R-I-I-L-d-F-L-F-L-R-K-K] (H-EMRISRIIL[dD]FLFLRKK-OH; N-terminus and C-terminus assumed)	150	–	–	–	–
